Measurements published in ChEMBL document CHEMBL1201862, “PubChem BioAssay data set” (2004).
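Tested at 5 concentrations; 48 h exposure; 96-well plates; endpoints linearly interpolated, else capped at highest concentration. Abbreviation: GI50, concentration required for 50% inhibition of growth.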 The source made the active and inactive calls. Cut-off read from the data, not from the text of the source: active = GI50 up to about 1.1 µM and inactive = higher.

Columns and labels:
Experiment in all cases: growth of human tumour cells (NCI), 48 h
T47D = system: T47D
ACHN = system: ACHN
SK-MEL-2 = system: SK-MEL-2
SNB-19 = system: SNB-19
NCI/ADR-RES = system: NCI/ADR-RES
786-0 = system: 786-0
OVCAR-5 = system: OVCAR-5
MCF7 = system: MCF7
HCC 2998 = system: HCC 2998
HCT-116 = system: HCT-116
U-251 = system: U-251
SW-620 = system: SW-620
PC-3 = system: PC-3
SNB-75 = system: SNB-75
A549 = system: A549
NCI-H23 = system: NCI-H23
M14 = system: M14
UACC-257 = system: UACC-257
MDA-MB-435 = system: MDA-MB-435
UACC-62 = system: UACC-62

| SMILES | GI50 (T47D) | GI50 (ACHN) | GI50 (SK-MEL-2) | GI50 (SNB-19) | GI50 (NCI/ADR-RES) | GI50 (786-0) | GI50 (OVCAR-5) | GI50 (MCF7) | GI50 (HCC 2998) | GI50 (HCT-116) | GI50 (U-251) | GI50 (SW-620) | GI50 (PC-3) | GI50 (SNB-75) | GI50 (A549) | GI50 (NCI-H23) | GI50 (M14) | GI50 (UACC-257) | GI50 (MDA-MB-435) | GI50 (UACC-62) |
| --- | --- | --- | --- | --- | --- | --- | --- | --- | --- | --- | --- | --- | --- | --- | --- | --- | --- | --- | --- | --- |
| CCc1cc(Cc2cc(CC)c(NC(=O)C(=O)CC(=O)c3sc(-c4cccnc4)nc3C)c(CC)c2)cc(CC)c1NC(=O)C(=O)CC(=O)c1sc(-c2cccnc2)nc1C | > 100 µM (inactive) | > 100 µM (inactive) | > 100 µM (inactive) | > 100 µM (inactive) | > 100 µM (inactive) | > 100 µM (inactive) | > 100 µM (inactive) | > 100 µM (inactive) | > 100 µM (inactive) | > 100 µM (inactive) | > 100 µM (inactive) | > 100 µM (inactive) | > 100 µM (inactive) | > 100 µM (inactive) | > 100 µM (inactive) | > 100 µM (inactive) | > 100 µM (inactive) | > 100 µM (inactive) | > 100 µM (inactive) | > 100 µM (inactive) |
| COC(=O)c1ccccc1C1CN=NC12Cc1ccc(C)cc1C2=O (stereo not given) | 29.4 µM (inactive) | > 100 µM (inactive) | 28.5 µM (inactive) | 70.3 µM (inactive) | 36.6 µM (inactive) | > 100 µM (inactive) | > 100 µM (inactive) | 72.8 µM (inactive) | 64.7 µM (inactive) | 38.6 µM (inactive) | 41.6 µM (inactive) | 45.2 µM (inactive) | 37.1 µM (inactive) | 90.6 µM (inactive) | 47.6 µM (inactive) | 59 µM (inactive) | 65.2 µM (inactive) | 93.1 µM (inactive) | 33.3 µM (inactive) | 68.7 µM (inactive) |
| BrC(Br)=C1C(=C(Br)Br)C(Br)C1Br (stereo not given) | 1.76 µM (inactive) | 0.152 µM (active) | 0.789 µM (active) | 1.95 µM (inactive) | 0.733 µM (active) | 0.163 µM (active) | 1.69 µM (inactive) | 0.193 µM (active) | 0.142 µM (active) | 0.302 µM (active) | 0.65 µM (active) | 0.207 µM (active) | 1.62 µM (inactive) | 1.69 µM (inactive) | 0.796 µM (active) | 0.284 µM (active) | 0.198 µM (active) | 1.75 µM (inactive) | 0.927 µM (active) | 0.429 µM (active) |
| C=CCn1c(=O)ccn(/C(=C/C(=O)OCC)C(=O)OCC)c1=O | 5.13 µM (inactive) | 3.72 µM (inactive) | 15.7 µM (inactive) | 29.4 µM (inactive) | 21.3 µM (inactive) | 3.48 µM (inactive) | 15.6 µM (inactive) | 3.94 µM (inactive) | 16.5 µM (inactive) | 7.1 µM (inactive) | 14.4 µM (inactive) | 2.18 µM (inactive) | 14.6 µM (inactive) | 16.1 µM (inactive) | 17.5 µM (inactive) | 17.1 µM (inactive) | 13.5 µM (inactive) | 15.2 µM (inactive) | 12.8 µM (inactive) | 15.7 µM (inactive) |
| CC(Oc1ccccc1Cl)C(=O)NN1C(=O)CSC1c1ccccc1 (stereo not given) | 63.4 µM (inactive) | > 100 µM (inactive) | > 100 µM (inactive) | > 100 µM (inactive) | > 100 µM (inactive) | 74.5 µM (inactive) | > 100 µM (inactive) | 92.3 µM (inactive) | > 100 µM (inactive) | 34.9 µM (inactive) | > 100 µM (inactive) | > 100 µM (inactive) | > 100 µM (inactive) | > 100 µM (inactive) | 62.7 µM (inactive) | > 100 µM (inactive) | > 100 µM (inactive) | > 100 µM (inactive) | 75.3 µM (inactive) | > 100 µM (inactive) |
| N#CC1CCCC2SC(F)(F)C(F)(F)C12 (stereo not given) | > 100 µM (inactive) | > 100 µM (inactive) | > 100 µM (inactive) | > 100 µM (inactive) | > 100 µM (inactive) | > 100 µM (inactive) | > 100 µM (inactive) | > 100 µM (inactive) | > 100 µM (inactive) | > 100 µM (inactive) | > 100 µM (inactive) | > 100 µM (inactive) | > 100 µM (inactive) | > 88.3 µM (inactive) | > 100 µM (inactive) | > 100 µM (inactive) | > 100 µM (inactive) | > 100 µM (inactive) | > 100 µM (inactive) | > 100 µM (inactive) |
| CC(=O)NNc1nc(C)c(C(/C=C/c2ccc([N+](=O)[O-])cc2)=N/NC(N)=S)s1 | > 100 µM (inactive) | > 100 µM (inactive) | > 100 µM (inactive) | > 100 µM (inactive) | > 100 µM (inactive) | > 100 µM (inactive) | > 100 µM (inactive) | > 100 µM (inactive) | > 100 µM (inactive) | > 100 µM (inactive) | > 100 µM (inactive) | > 100 µM (inactive) | > 100 µM (inactive) | > 100 µM (inactive) | > 100 µM (inactive) | > 100 µM (inactive) | > 100 µM (inactive) | > 100 µM (inactive) | > 100 µM (inactive) | > 100 µM (inactive) |
| CCOC(=O)/C1=C(\C)N(c2ccc(C)cc2)C(=O)c2ccccc2C(=O)c2c(O)ccc(O)c21 | 13.4 µM (inactive) | 14.2 µM (inactive) | 28.8 µM (inactive) | 47.5 µM (inactive) | 14.9 µM (inactive) | 18.2 µM (inactive) | 30.2 µM (inactive) | 15.2 µM (inactive) | 16.5 µM (inactive) | 19.5 µM (inactive) | 22.4 µM (inactive) | 27.6 µM (inactive) | 24.7 µM (inactive) | 0.634 µM (active) | 26.6 µM (inactive) | 24.7 µM (inactive) | 19.1 µM (inactive) | 15.8 µM (inactive) | 18.5 µM (inactive) | 28 µM (inactive) |
| COc1ccc(-n2nnc(C(N)=O)c2O)cc1 | > 100 µM (inactive) | > 100 µM (inactive) | > 100 µM (inactive) | > 100 µM (inactive) | > 100 µM (inactive) | > 100 µM (inactive) | > 100 µM (inactive) | > 100 µM (inactive) | > 100 µM (inactive) | > 100 µM (inactive) | > 100 µM (inactive) | > 100 µM (inactive) | > 100 µM (inactive) | > 100 µM (inactive) | > 100 µM (inactive) | > 100 µM (inactive) | > 100 µM (inactive) | > 100 µM (inactive) | > 100 µM (inactive) | > 100 µM (inactive) |
| C=C1[C@H](OC(=O)C(C)C)[C@]23CC4(O)[C@@H]5[C@@]6(C)CCC[C@]57C([C@@H]2C[C@@]1(O)[C@H](O)[C@@H]73)N4C6 | > 100 µM (inactive) | 72.8 µM (inactive) | > 100 µM (inactive) | > 100 µM (inactive) | > 100 µM (inactive) | > 100 µM (inactive) | > 100 µM (inactive) | > 100 µM (inactive) | 27 µM (inactive) | > 100 µM (inactive) | > 100 µM (inactive) | > 100 µM (inactive) | > 100 µM (inactive) | > 100 µM (inactive) | > 100 µM (inactive) | > 100 µM (inactive) | > 100 µM (inactive) | > 100 µM (inactive) | > 100 µM (inactive) | > 100 µM (inactive) |
| C=C1CC2CC[C@@]34C[C@H]5O[C@@H]6C(O[C@H]7CC[C@H](CC(=O)OC8[C@H](C)C9OC%10C[C@]%11(C[C@@H]%12O[C@]%13(C[C@H](C)[C@@H]%14O[C@H]([C@H](O)C[C@H](O)CO)C[C@@H]%14O%13)C[C@H](C)[C@@H]%12O%11)OC%10CC9O[C@H]8C[C@H]8O[C@H](CC[C@@H]1O2)C[C@@H](C)C8=C)O[C@H]7[C@@H]6O3)[C@@H]5O4 (stereo not given in full) | 2.65 µM (inactive) | 0.00411 µM (active) | 0.00149 µM (active) | 0.00191 µM (active) | 0.000516 µM (active) | 0.00246 µM (active) | 0.00845 µM (active) | 0.000255 µM (active) | 0.00201 µM (active) | 0.000513 µM (active) | 0.000899 µM (active) | 0.000482 µM (active) | 0.000106 µM (active) | 0.000321 µM (active) | 0.00147 µM (active) | 0.000605 µM (active) | 0.00143 µM (active) | 0.0008 µM (active) | 0.0001 µM (active) | 0.000469 µM (active) |
| CC(=O)OC(C)(C)[C@H]1O[C@]23O[C@]1(C)C[C@@H](C)[C@@H]2[C@@]1(C)CC[C@@]24C[C@@]25CC[C@H](O[C@@H]2OC[C@@H](O)[C@H](O)[C@H]2O)C(C)(C)[C@@H]5CC[C@H]4[C@]1(C)[C@H]3O | 17.6 µM (inactive) | 6.07 µM (inactive) | 18.1 µM (inactive) | 6.27 µM (inactive) | 7.73 µM (inactive) | 6.38 µM (inactive) | 11.8 µM (inactive) | 5.38 µM (inactive) | 9.93 µM (inactive) | 6.67 µM (inactive) | 6.41 µM (inactive) | 4.34 µM (inactive) | 4.65 µM (inactive) | 17.1 µM (inactive) | 6.41 µM (inactive) | 4.84 µM (inactive) | 8.59 µM (inactive) | 18.8 µM (inactive) | 8.73 µM (inactive) | 14.6 µM (inactive) |
| CC1(C)CC[C@]2(C(=O)O)CC[C@]3(C)[C@H](C(=O)C=C4[C@@]5(C)C=C(C#N)C(=O)C(C)(C)[C@@H]5CC[C@]43C)[C@@H]2C1 [BARDOXOLONE] | 0.414 µM (active) | 0.543 µM (active) | 1 µM (active) | 0.303 µM (active) | 0.993 µM (active) | 0.16 µM (active) | 0.488 µM (active) | 0.265 µM (active) | < 0.0412 µM (active) | 0.294 µM (active) | 0.274 µM (active) | 0.492 µM (active) | 0.311 µM (active) | 0.45 µM (active) | 1.16 µM (inactive) | 0.174 µM (active) | 0.769 µM (active) | 1.14 µM (inactive) | 0.537 µM (active) | 0.2 µM (active) |
